From US20110189174A1, “COMPOSITIONS AND METHODS FOR TREATING, REDUCING, AMELIORATING, ALLEVIATING, OR INHIBITING PROGRESSION OF, PATHOGENIC OCULAR NEOVASCULARIZATION” (priority 2010, published 2011) come the findings set out here.

The test system of data set [1] is laser-induced CNV in rats. Description: Laser-induced choroidal neovascularization in rats (CNV area, fluorescein angiography grades). Type of data set: in vivo, Brown Norway rats. Conditions: day 14, 200 μg/eye (echistatin 5 μg, Avastin 125 μg); for Number of lesions in FA grade 1 / Number of lesions in FA grade 2 / Number of lesions in FA grade 3 / Number of lesions in FA grade 4: unobstructed lesions. On the procedure:
Fifty six male Brown Norway rats, approximately 200-300 grams of body weight and two months of age, were used in this study. This study was performed in two cohorts and only one eye of each rat was used.
The pupils were dilated and then the rats were anesthetized as described in baseline examination. The rats were positioned in front of a slit lamp system (Haag-Streit USA, Mason, Ohio). […] A diode laser (OcuLight TX, IRIDEX, Mountain View, Calif.) was used for photocoagulation (532 nm wavelength, 120 mW power, 50 μm spot size and 0.05 seconds duration). For each right eye, a series of six photocoagulation sites were concentrically placed between the major retinal vessels at equal distance (about two optic discs) around the optic nerve head. […] If a significant retinal or subretinal hemorrhage occurred during the laser photocoagulation, then the left eye was be photocoagulated and used as the experimental eye.
Grade 1 lesions had no hyperfluorescence.
The eyes were collected on day 14 and immediately fixed in 4% paraformaldehyde in PBS (pH 7.4) for one and half hours, and then transferred into cold PBS and kept at 4° C. for further processing.
The incubation was performed in a humidified dark chamber with gentle rotation at 4° C. overnight. On the second day, the retinal pigment epithelium (RPE)-choroidsclera complexes were washed with cold IHC buffer, mounted with ProLong® Gold antifade reagent, covered with circular cover glass, and sealed with clear nail polish. Fluorescent images were collected with a confocal microscope (FluoView FV 1000 confocal microscope, Olympus, Center Valley, Pa.) and a 4×, 0.16 numerical aperture objective lens. […] The laser sites were identified by merging images of the green (phalloidin labeling RPE) and the red (isolectin IB4 labeling CNV) channels. CNV complexes were identified using the red channel (isolectin), and their areas were quantified using the FluoView software (Version 1.7a).
Average FA scores and areas of CNV complexes in each group were presented as mean±SEM, unless otherwise indicated. They were analyzed using a one-way ANOVA followed by a Tukey-Kramer test after Box-Cox transformations. All statistics were performed utilizing the statistical analysis software JMP (SAS Institute, Cary, N.C.). p values ≦0.05 were considered statistically significant.

The test system of data set [2] is human retinal endothelial cells (HREC). Description: Testing 7: VEGF-induced HREC proliferation (MTS assay), integrin antagonists and Lucentis alone and in combination. Type of data set: cell-based. Particulars: study II; compound 1 nM; Lucentis 1 ng/mL. How it is done:
HREC were first cultured overnight in a 96-well plate coated with fibronectin. The next day medium containing different agents as shown in Tables 14 and 15 was pre-incubated for 1 hour before being added into appropriate wells. The cells were cultured at 37° C., 5% CO2, and 95% humidity for another 3 days. After that, cell proliferation was estimated by the MTS assay. In the first study we used VEGF 10 ng/mL (about EC80 in study PH08169), Lucentis® 1 ng/mL (about EC25 in study PH09038) and 5 doses of BOL-303055-X. Normal IgG (1 ng/ml) was also added to groups containing no Lucentis®. All groups contained the same amount of 0.1% DMSO. In the second study, all five compounds (BOL-303049-X, BOL-303050-X, BOL-303051-X, BOL-303054-X and BOL-303055-X) were tested at 1 nM with other conditions remaining the same.
A 96-well plate was coated with human fibronectin (10 μg/mL) for 5 hours at 37° C. HREC were washed with HBSS buffer once, tripsinized and re-suspended in 10% FBS CS-C medium at 18,000 cells/mL. Cells (200 μL) were added to the plate and cultured overnight at 37° C., 5% CO2, and 95% humidity. Next day, the cells were serum-starved for 2 hours.
For study I, VEGF at 10 ng/mL, Lucentis® at 1 ng/mL and BOL-303055-X at 0.1, 0.3, 1, 3 and 10 nM were prepared in 1% FBS CS medium as shown in Table 14. Normal IgG (1 ng/mL) were added to groups containing no Lucentis®. All medium solutions were incubated for 1 hour at 37° C. After carefully medium was aspirated, 200 μL of the medium containing different agents were then added into appropriate wells. The cells were cultured for another 3 days. For the study II as shown in the Table 15, five compounds were tested at 1 nM with other conditions remaining the same as study I.
At the end of incubation, the medium was carefully aspirated from cells and 120 μl of MTS working solution was added into all wells including blank wells (without cells). The plates were incubated at 37° C., 5% CO2, and 95% humidity for 1 hour and then read by a plate reader at 490 nm wavelength.
Median optical density (OD) was generated from different groups. Data were expressed as mean±SEM of the OD values. Statistical analysis was performed using three-way ANOVA after Box-Cox transformations, and p<0.05 was considered statistically significant. To evaluate whether the effects of the combinations were either synergistic or additive, net inhibitions were calculated by subtracting the basal levels in the presence of VEGF from the individual treatments (Lucentis® and Integrin blockers) and the combinations. […] Data analysis was performed utilizing the statistical analysis software JMP (SAS Institute, Cary, N.C.).
On the technique in general: Tetrazolium dyes change colour on reduction, which living cells bring about.

Data set [3] shares this test system. The experiment in a line: PMA-induced HREC network formation in fibrin gel. It is filed as cell-based. Conditions: PMA 25 ng/mL, vs PMA control. How it is done: Prior to the start of the experiment, HREC from Cell Systems were cultured in flask in CS-C complete medium. The tube formation assay was performed in a 96-well plate pre-coated with fibrin gel. HREC were collected from flasks and re-suspended 1% FBS EBM-2 medium. Cells were pre-incubated with the integrin antagonists, echistatin or vehicle control for 30 min before loading onto the fibrin gel. Images were taken at 9 h.
Thrombin solution and fibrinogen solutions were allowed to thaw at room temperature and 37° C. water bath, respectively. Fibrinogen solution at 30 μL was added into the desired number of wells in a 96-well plate. Plate was gently shaken to ensure uniform coverage of fibrinogen solution in the well. Thrombin at 20 μL was added into each well. The plate was gently shaken immediately to ensure the thrombin was mixed well with fibrinogen. The plate was placed at 37° C. overnight to allow the fibrin gel to polymerize.
HREC were trypsinized at about 80% confluence and counted by standard hemocytometer methods. After deactivating trypsin with 5 mL of 10% FBS EBM-2 medium, the cells were centrifuged (800 rpm, 8 min) and re-suspended at 2×10^5 cells/mL in 1% FBS EBM-2 medium
Cells were pre-incubated with integrin compounds or echistatin at 37° C., 5% CO2, and 95% humidity for 30 minutes before mixing with PMA medium. The final concentrations of all agents are shown in the design table. The 100 μL of the cell mixture was added onto the gel and cells were cultured at 37° C., 5% CO2, and 95% humidity. Images were taken at different time points.
The network formation scoring system (a five point-scale)
Each well in one group was given a score and then averaged. Data were expressed as mean±SEM of network formation scores. Statistical analysis was performed using a one-way ANOVA-Dunnett's test in raw data, and p<0.05 was considered statistically significant. Data analysis was performed using statistical analysis software JMP (SAS Institute, Cary, N.C.).

The nature of data set [4]: Ocular clinical findings in rats 14 days after intravitreal injection. Particulars: for Intraocular inflammation and retinal vascular congestion: Day 14 after intravitreal injection.
Protocol: The anterior segment of the eye was examined using a slit-lamp biomicroscopy for excluding any animals with abnormalities that might interfere with the study. Fundus photography and fluorescein angiography (FA) were performed to document the health of the retina and the ocular circulation using a TRC 50EX fundus camera (Topcon). For FA, 10% sodium fluorescein was injected intravenously (50 mg/kg of body weight) through the tail vein or the vein under the incisor before the procedure.
Immediately after placement of laser photocoagulation, the experimental eyes received an intravitreal injection of either a compound or a vehicle as described in Table 5. Following the disinfection of ocular surface with 5% betadine and 0.9% saline solutions, the injections were performed with aid of a surgical microscope using 0.3 mL syringes with a 31-gauge ½-inch long needle (Ultra-Fine II™ Insulin syringe, BD, Franklin Lakes, N.J.).
Two weeks after photocoagulation, all rats were examined under anesthesia and pupil dilation with slit-lamp biomicroscopy, fundus photography and FA as described in the baseline examination.
Data set [5] concerns human retinal endothelial cells (HREC). The experiment in a line: Testing 5: VEGF-induced HREC proliferation (MTS assay), echistatin and Avastin alone and in combination. Particulars: echistatin 2 nM. Type of data set: cell-based. On the procedure: HREC were first cultured overnight in a 96-well plate coated with fibronectin. The next day, cells were serum-starved for 2 h before treatment. Medium containing different agents as shown in table below was pre-incubated for 1 h before being added to cells. The cells were cultured at 37° C., 5% CO2, and 95% humidity for another 3 days. After that, cell proliferation was estimated by the MTS assay. […] Normal human IgG was also added to different groups in such a way that all groups contained the same amounts of IgG protein.
A 96-well plate was coated with human fibronectin (10 μg/mL) for 5 hours. HREC were collected from flasks by EDTA-trypsin treatment and re-suspended in 10% FBS CS-C medium at 15,000 cells/mL. Cells (200 μL) were added to the plate and cultured overnight at 37° C., 5% CO2, and 95% humidity. Next day, the medium was removed and 200 μl/well serum free medium was added.
All medium solutions were incubated for 1 h at 37° C. After carefully aspirating the medium from cells, […], of the medium containing the different agents was added into appropriate wells. The cells were cultured for another 3 days.
At the end of incubation, the medium was carefully aspirated from cells and 120 μl of MTS working solution was added into all wells including blank wells (without cells). The plate was incubated at 37° C., 5% CO2, and 95% humidity for 1 hour and then absorbance was read by a plate reader at 490 nm wavelength.
Median optical density (OD) was generated from different groups. Data were expressed as mean±SEM of the OD values. Statistical analysis was performed using a one or two-way ANOVA using Box-Cox transformed data if needed, and P<0.05 was considered statistically significant. […] All the data from the individual wells were fitted to a re-parameterized four-parameter logistic equation to obtain IC50 using similar methodology as that previously described and utilizing the statistical analysis software JMP (SAS Institute, Cary, N.C.).

[6] abbreviates: Day 14, 200 μg/eye intravitreal.
The mark [7] stands for this setting: one intravitreal injection after laser.

Turning to `COc1ccc(CCOC(=O)N[C@@H](CNc2nc(C)nc(N3CCC(c4ccc5c(n4)NCCC5)CC3)c2C)C(=O)O)cc1` [BOL-303049-X], in data set [1], the “Number of lesions in FA grade 1” value was found to be 0, the “Number of lesions in FA grade 2” value came out at 0, the “Number of lesions in FA grade 3” value is given as 0 and the “Number of lesions in FA grade 4” value is 0. In addition, the “Combination effect with Lucentis on VEGF-induced HREC proliferation (synergistic/additive)” value in data set [2] is given as “synergistic effect”. Moreover, the “Inhibition of PMA-induced HREC network formation in fibrin gel” value (from here on “Inhibition … in fibrin gel”) in data set [3] (1 nM) was “significantly inhibited”. The “Inhibition … in fibrin gel” value in data set [3] (10 nM) is recorded as “significantly inhibited”. Further, in data set [4] (setting [6]), the “Eyes with anterior chamber inflammation/Total eyes” value is recorded as 6/6, the “Eyes with retinal vascular congestion/vessel-observable eyes” value was 1/1 and the “Posterior synechiae of iris” value is on record as “Posterior synechiae of iris occurred in several eyes”. Besides, the “Intraocular inflammation and retinal vascular congestion” value in data set [4] is “most severe inflammation”.
For `CC1(C)O[C@@H]2C[C@H]3[C@@H]4CCC5=CC(=O)C=C[C@]5(C)[C@@]4(F)[C@@H](O)C[C@]3(C)[C@]2(C(=O)CO)O1` [TA, triamcinolone acetonide, reference compound], in data set [1], the “Number of lesions in FA grade 1” value is 3, the “Number of lesions in FA grade 2” value is on record as 11, the “Number of lesions in FA grade 3” value was 4 and the “Number of lesions in FA grade 4” value came to 0. Besides, in data set [4], the “Intraocular inflammation and retinal vascular congestion” value is “no intraocular inflammation and retinal vascular congestion was recorded”.
In the case of Echistatin [reference compound], in data set [1] (setting [7]), the “CNV area / development of CNV on isolectin IB4-labeled flat mounts compared to vehicle-treated controls” value is “smaller area of CNV” and the “Mean score of fluorescein leakage (FA score) compared to vehicle-treated controls” value was “smaller means”. For the same compound, in data set [1], the “Number of lesions in FA grade 1” value stood at 0, the “Number of lesions in FA grade 2” value worked out at 12, the “Number of lesions in FA grade 3” value is given as 3 and the “Number of lesions in FA grade 4” value was 2. In data set [5], the “Enhancement of Avastin potency” value is recorded as “approximately 1.6 fold”. Also, in data set [5] (Avastin 0.625-10 ng/ml (significant at 10 ng/ml), VEGF 10 ng/mL), the “Inhibition of VEGF-induced HREC proliferation, agent alone” value was “not statistically significant”. For the same compound, the “HREC proliferation under basal conditions” value in data set [5] (Avastin 0.625-10 ng/ml, no VEGF) was “significantly inhibited”. In data set [5] (Avastin 0.625 to 10 ng/ml), the “Combination effect with Avastin on VEGF-induced HREC proliferation (synergistic/additive)” value is given as “additive effects”. In data set [3] (10 nM), the “Inhibition … in fibrin gel” value is “significantly inhibited”. In data set [4] (Day 14, echistatin 5 μg/eye intravitreal), the “Cataract formation” value was “Two eyes treated with echistatin developed cataract”. Moreover, the “Intraocular inflammation and retinal vascular congestion” value in data set [4] is “no intraocular inflammation and retinal vascular congestion was recorded”.
Turning to `Cc1nc(NC[C@H](NC(=O)OCC2CCCCC2)C(=O)O)c(C)c(N2CCC(c3ccc4c(n3)NCCC4)CC2)n1` [BOL-303051-X], the “Mean score of fluorescein leakage (FA score) compared to vehicle-treated controls” value in data set [1] (setting [7]) is reported as “smaller means”. Besides, in data set [1], the “Number of lesions in FA grade 1” value was determined as 2, the “Number of lesions in FA grade 2” value is given as 3, the “Number of lesions in FA grade 3” value is listed as 9 and the “Number of lesions in FA grade 4” value came out at 10. Further, the “Combination effect with Lucentis on VEGF-induced HREC proliferation (synergistic/additive)” value in data set [2] was “additive effects”. In addition, in data set [3] (1 nM), the “Inhibition … in fibrin gel” value is “significantly inhibited”. In data set [3] (10 nM), the “Inhibition … in fibrin gel” value is given as “significantly inhibited”. Moreover, in data set [4] (setting [6]), the “Eyes with anterior chamber inflammation/Total eyes” value is reported as 3/6 and the “Eyes with retinal vascular congestion/vessel-observable eyes” value is 0/4.
